Results as given in patent US20130324617A1, “CROWN-LIKE STRUCTURES AS A BIOMARKER FOR CANCER RISK AND CANCER PROGNOSIS” (MEMORIAL SLOAN-KETTERING CANCER CENTER, priority 2011, published 2013).

Columns and labels:
THP-1 cells = assay: Pro-inflammatory mediators (TNF-α, IL-1β, Cox-2, PGE2) in saturated fatty acid-treated THP-1 cells; format: cell-based, human; conditions: for induction of TNF-α in THP-1 cells: 0, 2.5, 5, 10 μmol/L saturated fatty acid, 24 hours, real-time PCR
Experimental: (§1) THP-1 cells (ATCC) were maintained in RPMI-1640 medium (Invitrogen) supplemented with 10% FBS. These cells were treated with phorbol 12-myristate 13-acetate (10 ng/mL) overnight to differentiate them into macrophages. Human monocytes (Astarte Biologics) were activated with IFNγ (15 ng/mL) and lipopolysaccharide (15 ng/mL) in RPMI-1640 medium for 4 days. THP-1 cells and blood monocyte-derived macrophages were then treated with saturated fatty acids (Nu-CheK Prep) as indicated. To prepare conditioned medium (CM), the cells were treated with saturated fatty acids for 12 hours in medium comprised of RPMI-1640 and preadipocyte medium (ScienCellTMResearch Laboratories) at a 1:1 ratio. Following treatment with fatty acids, the medium was removed and cells were washed thrice with PBS to remove fatty acids. Subsequently, fresh medium was added for 24 hours. This CM was then collected and centrifuged at 4,000 rpm for 30 minutes to remove cell debris. CM was used to treat preadipocytes.
(§2) Lysates were prepared by treating cells with lysis buffer, sonicating for 20 seconds on ice and centrifuging at 10,000×g for 10 minutes to remove particulate material. The protein concentration of the supernatant was measured by the method of Lowry et al. (Lowry 1951). SDS-PAGE was done under reducing conditions on 10% polyacrylamide gels. The resolved proteins were transferred onto nitrocellulose sheets and incubated with primary antisera. Antibodies to phospho-p65, p65, histone H3, Cox-2 and β-actin were used (Santa Cruz Biotechnology). Secondary antibody to IgG conjugated to horseradish peroxidase was used. The blot was probed with the ECL Western blot detection system.
(§3) Total RNA was isolated using the RNeasy mini kit (Qiagen). For tissue analyses, poly A RNA was prepared with an Oligotex mRNA mini kit (Qiagen). Poly A RNA was reversed transcribed using murine leukemia virus reverse transcriptase and oligo (dT)16 primer. The resulting cDNA was then used for amplification using primers listed Table 1. GAPDH and β-actin were used as endogenous normalization controls for tissue and cell culture analyses, respectively. Real-time PCR was performed using 2×SYBR green PCR master mix on a 7500 Real-time PCR system (Applied Biosystems). Relative fold induction was determined using the ddCT (relative quantification) analysis protocol.
LC/MS/MS analyses were performed using a Tandem Quadrupole Mass Spectrometer (Agilent) equipped with an Agilent 1200 binary pump HPLC system using a modified version of the method of Yang 2006. PGs were chromatographically separated using a Gemini 3-μm C6-phenyl 4.6×100 mm analytical column (Phenomenex). The mobile phase consisted of 0.1% formic acid in water (mobile phase A) and 0.1% formic acid in acetonitrile (mobile phase B). The chromatographic baseline resolution for the PGs of interest was achieved using a linear gradient that went from 20% to 40% mobile phase B for 12 minutes and then from 40% to 70% for 8 minutes. This was then increased to 90% mobile phase B over the next 2 minutes and kept at this level for an additional 3 minutes. The flow rate was 0.8 mL/min with a column temperature of 40° C. The mass spectrometer was operated in negative electrospray ionization mode with capillary voltage of 2.9 kV, a cone gas flow rate of […] and a shear gas flow rate of 12 mL/minute at 350° C. PGs were detected and quantified using multiple reaction mode monitoring of the transitions m/z 351 to 271 for PGE2 and m/z 355 to 275 for PGE2-d4. The results are expressed as nanograms of PGE2 per mg of protein. For measurements of PGE2 in cell culture media, EIA kits were used (Cayman Chemicals).
TNF-α and IL-1β levels were quantified in cell culture media using EIA kits (R & D systems).
Experiments were carried out in vitro to determine if saturated fatty acids stimulated the production of pro-inflammatory molecules by macrophages leading, in turn, to elevated aromatase expression in preadipocytes.

[1] = system: aromatase in human preadipocytes; assay: Induction of aromatase mRNA and activity in preadipocytes by macrophage-derived conditioned medium; format: cell-based; conditions: for aromatase mRNA and activity in human preadipocytes: preadipocytes treated 24 hours
Experimental: Human visceral preadipocytes (ScienCell™) were grown in preadipocyte medium containing 10% FBS.
as §1, §3
To determine aromatase activity, microsomes were prepared from cell lysates and tissues by differential centrifugation using established methods (Subbaramaiah 2006). Aromatase activity was quantified by measurement of the tritiated water released from 1β-[^3H]-androstenedione (Subbaramaiah 2008). The reaction was also performed in the presence of letrozole, a specific aromatase inhibitor, as a specificity control and without NADPH as a background control. Aromatase activity was normalized to protein concentration.
Further, to investigate whether conditioned medium from saturated fatty acid-treated macrophages induced aromatase in preadipocytes, THP-1 cells or human blood monocyte-derived macrophages were treated with 0, 2.5, 5 or 10 μmol/L LA, MA, PA or SA as described above to generate CM (n=6). This CM was used to treat preadipocytes for 24 hours. Aromatase mRNA and activity levels were determined. Treatment with CM derived from either saturated fatty acid-treated THP-1 cells or human blood monocyte-derived macrophages induced aromatase mRNA and activity in human preadipocytes. Neutralizing either TNF-α or IL-1β by incubating the CM from SA-treated cells with neutralizing antibodies to TNF-α, IL-1β or control IgG overnight at 4° C. attenuated CM-mediated induction of aromatase in preadipocytes.
Next, THP-1 cells were transfected as indicated with control siRNA or TNF-α siRNA, IL-1β siRNA or Cox-2 siRNA for 36 hours. Cells were then treated with vehicle (control) or 10 μmol/L SA as described above. The levels of TNFα, IL-1β and PGE2 were measured by enzyme immunoassay in the CM. Cox-2 protein abundance was determined by immunoblotting of whole cell lysates using β-actin was used as a loading control. Preadipocytes were treated with THP-1 cell-derived CM for 24 hours prior to measurements of aromatase mRNA and activity. […] Following treatment, the medium was removed and cells were washed. Subsequently, fresh medium was added for 24 hours to generate CM. PGE2 production was measured in CM. Preadipocytes were treated with THP-1 cell-derived CM for 24 hours prior to measurements of aromatase mRNA and activity. […]

NF-κB = assay: NF-κB-luciferase reporter assay in THP-1 cells; format: cell-based, human; conditions: for NF-κB-luciferase activity in THP-1 cells: 10 μmol/L fatty acid, 24 hours
Experimental: NF-κB-luciferase (Panomics) and pSVβgal (Promega) were transfected into THP-1 cells using the Amaxa system. After 24 hours of incubation, the medium was replaced with basal medium. The activities of luciferase (BD Biosciences) and β-galactosidase were measured in cellular extracts. For siRNA transfections, THP-1 cells were plated at 60% confluence and transfected with non-targeting siRNA or siRNA targeting TNF-α, IL-1β, Cox-2 and p65 using Dharmafect 4 for 36 hours. Subsequently, the cells were treated with vehicle or saturated fatty acids.
To investigate the potential role of the transcription factor NF-κB in saturated fatty acid-mediated induction of TNF-α, IL-1β and Cox-2 in macrophages, transient transfection assays were performed in saturated fatty acid-treated THP-1 cells with an NF-κB-luciferase reporter construct and pSV-βgal constructs.
The effects of BAY11-7082, a pharmacological inhibitor of NF-κB, were evaluated. THP-1 cells were transiently transfected with NF-κB-luciferase and pSV-βgal constructs and cells were subsequently treated with vehicle, 10 μmol/L SA or SA plus 0, 5 or 10 μmol/L of BAY11-7082 (InvivoGen) for 12 hours. NF-κB luciferase activity was normalized to β-galactosidase activity. Additionally, THP-1 cells were treated with vehicle (control), 10 μmol/L SA or SA plus 10 μmol/L BAY11-7082 for 24 hours. Levels of TNF-α protein, IL-1β protein and PGE2 in the CM were determined by enzyme immunoassay. Preadipocytes were treated with THP-1 cell-derived CM for 24 hours prior to measurements of aromatase mRNA and activity.

p65 = assay: Immunoblotting of phospho-p65 and p65 in THP-1 cells; format: cell-based, human; conditions: 30 minutes; for phosphorylation of p65: THP-1 cells, 0, 2.5, 5 or 10 μmol/L fatty acid
Experimental: as §2
The abundance of phospho-p65 was determined by immunoblotting in cytosolic and nuclear preparations of cells treated with vehicle (control) or 10 μmol/L SA for 30 minutes. β-actin and histone H3 were used as cytosolic and nuclear markers, respectively.

NF-κB binding sites = assay: Electrophoretic mobility shift assay of nuclear protein from THP-1 cells; format: cell-based, human; conditions: THP-1 cells, 0, 2.5, 5 or 10 μmol/L SA, 1 hour; EMSA
Experimental: Nuclear extracts were prepared from mouse mammary glands using an EMSA kit (Promega). For binding studies, oligonucleotides containing NF-κB sites (Active Motif) were used. The complementary oligonucleotides were annealed in 20 mmol/L Tris (pH 7.6), 50 mmol/L NaCl, 10 mmol/L MgCl2, and 1 mmol/L dithiothreitol. The annealed oligonucleotide was phosphorylated at the 5′ end with [γ-^32P]ATP and T4 polynucleotide kinase. The binding reaction was performed by incubating 5 μg of nuclear protein in 20 mmol/L HEPES (pH 7.9), 10% glycerol, 300 μg of bovine serum albumin, and 1 μg of poly(dI·dC) in a final volume of 10 μL for 10 minutes at 25° C. The labeled oligonucleotides were added to the reaction mixture and allowed to incubate for an additional 20 minutes at 25° C. The samples were electrophoresed on a 4% nondenaturing polyacrylamide gel. The gel was then dried and subjected to autoradiography at −80° C.
DNA-protein binding complexes to NF-κB binding sites were examined by electrophoretic mobility shift assays (EMSA). Nuclear protein was prepared from THP-1 cells treated with 0, 2.5, 5 or 10 μmol/L of SA for 1 hour. In another experiment, nuclear protein was prepared from THP-1 cells treated with vehicle or 10 μmol/L SA for 1 hour, and the nuclear protein was incubated with normal IgG or different concentrations of antibodies to p65. […]

[2] = 10 μmol/L SA plus 10 μmol/L BAY11-7082, 24 hours, enzyme immunoassay
[3] = CM from THP-1 cells treated with 0, 2.5, 5 or 10 μmol/L fatty acid
[4] = CM from human blood monocyte-derived macrophages treated with 0, 2.5, 5 or 10 μmol/L fatty acid

Structure (SMILES)	production of increased amounts of IL-1β in CM (THP-1 cells; [2])	production of increased amounts of PGE2 in CM (THP-1 cells; [2])	production of increased amounts of TNF-α in CM (THP-1 cells; [2])	ability of macrophage-derived CM to induce aromatase expression and activity ([1]; following NF-κB inhibition of THP-1 cells with BAY11-7082, preadipocytes treated with CM 24 hours)	SA-mediated activation of NF-κB (NF-κB luciferase activity) (NF-κB; 10 μmol/L SA plus 0, 5 or 10 μmol/L BAY11-7082, 12 hours)	induction of TNF-α in THP-1 cells (THP-1 cells)	aromatase mRNA and activity in human preadipocytes [1, 3]	aromatase mRNA and activity in human preadipocytes [1, 4]	NF-κB-luciferase activity in THP-1 cells (NF-κB)	phosphorylation of p65 (p65)	binding of nuclear protein to a 32P-labeled NF-κB consensus sequence (NF-κB binding sites)	translocation of p65 from cytosol to nucleus (p65; THP-1 cells, 10 μmol/L SA)
Cc1ccc(S(=O)(=O)/C=C/C#N)cc1 [BAY11-7082]	suppressed	suppressed	suppressed	suppressed	suppressed							
CCCCCCCCCCCC(=O)O [LA, lauric acid]						dose-dependent induction	induced	induced				
CCCCCCCCCCCCCC(=O)O [MA, myristic acid]						dose-dependent induction	induced	induced				
CCCCCCCCCCCCCCCC(=O)O [PA, palmitic acid]						dose-dependent induction	induced	induced	induced	stimulated		
CCCCCCCCCCCCCCCCCC(=O)O [SA, stearic acid]						dose-dependent induction	induced	induced	induced	stimulated	stimulated	stimulated
